We go through 32 compounds from patent US12459899B2, “Isoquinolinone derivatives, method for preparing the same, and pharmaceutical composition for preventing or treating poly(ADP-ribose) polymerase-1-related diseases, comprising the same as active ingredient” (DIGMBIO. INC., priority 2019, dated 2025).

This experiment deals with PARP-1 (poly[ADP-ribose] polymerase 1) enzyme (Homo sapiens (Human), UniProt P09874). Kind of experiment: PARP-1 (poly[ADP-ribose] polymerase 1) enzyme inhibitory ability, Trevigen assay kit. The experiment is classed as biochemical. To be noted: for inhibition at 0.001 µM: 1 nM compound, read-out: PAR P-1 Inhibitory ability at 1 nM; for IC50: PARP-1 enzyme activity. The method in brief:
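Human PARP-1 activity was measured with a Trevigen assay kit in histone-coated 96-well plates rehydrated with 50 μL of 1×PARP buffer for 30 minutes. Enzyme (0.5 unit/well) and compound were preincubated 10 minutes at room temperature, then 25 μL of 1×PARP cocktail with biotinylated NAD and activated DNA was added for 1 hour.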

SMILES strings stand for the structures. Bounds are passed on as bounds.

Sequence of PARP-1 (poly[ADP-ribose] polymerase 1) enzyme (P09874 whole entry): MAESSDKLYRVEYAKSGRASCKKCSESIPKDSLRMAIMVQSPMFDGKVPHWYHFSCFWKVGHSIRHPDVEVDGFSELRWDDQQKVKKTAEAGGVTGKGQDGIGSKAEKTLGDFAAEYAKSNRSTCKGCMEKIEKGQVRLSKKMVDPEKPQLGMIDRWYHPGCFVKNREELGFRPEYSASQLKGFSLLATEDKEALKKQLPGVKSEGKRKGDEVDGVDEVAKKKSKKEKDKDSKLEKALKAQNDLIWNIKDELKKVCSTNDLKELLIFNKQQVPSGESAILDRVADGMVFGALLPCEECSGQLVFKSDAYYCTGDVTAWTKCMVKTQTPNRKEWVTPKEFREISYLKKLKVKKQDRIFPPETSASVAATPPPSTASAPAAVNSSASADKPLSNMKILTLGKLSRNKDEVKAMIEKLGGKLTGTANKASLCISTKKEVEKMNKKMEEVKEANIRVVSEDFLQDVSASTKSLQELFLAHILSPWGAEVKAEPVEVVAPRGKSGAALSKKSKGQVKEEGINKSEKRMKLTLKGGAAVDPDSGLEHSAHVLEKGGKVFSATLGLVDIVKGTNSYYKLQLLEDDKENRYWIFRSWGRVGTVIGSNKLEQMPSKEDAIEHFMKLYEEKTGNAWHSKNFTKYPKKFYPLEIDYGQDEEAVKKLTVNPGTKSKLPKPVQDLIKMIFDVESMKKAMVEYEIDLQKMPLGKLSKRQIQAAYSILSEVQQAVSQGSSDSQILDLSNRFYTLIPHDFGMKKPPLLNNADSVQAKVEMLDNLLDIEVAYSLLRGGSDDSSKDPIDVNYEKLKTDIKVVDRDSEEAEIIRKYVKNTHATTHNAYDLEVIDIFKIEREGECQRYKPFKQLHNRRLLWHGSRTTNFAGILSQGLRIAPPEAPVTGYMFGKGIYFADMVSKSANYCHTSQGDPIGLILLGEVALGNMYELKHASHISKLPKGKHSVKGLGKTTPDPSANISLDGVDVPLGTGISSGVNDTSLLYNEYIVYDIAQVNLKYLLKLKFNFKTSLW

Regarding `N#Cc1cc(F)cc(N2CCN(C(=O)CCc3cc4ccc(F)cc4c(=O)[nH]3)CC2)c1` [Example 119, 3-fluoro-5-(4-(3-(7-fluoro-1-oxo-1,2-dihydroisoquinolin-3-yl)propanoyl)piperazin-1-yl)benzonitrile], the inhibition at 0.001 µM is below 50%. Take `O=C(CCc1cc2ccc(F)cc2c(=O)[nH]1)N1CCN(c2cccc(F)c2)CC1` [Example 120, 7-fluoro-3-(3-(4-(3-fluorophenyl)piperazin-1-yl)-3-oxopropyl)isoquinolin-1(2H)-one]: the inhibition at 0.001 µM was below 50%. Still for that read-out and setting: the same measure for `O=C(CCc1cc2ccc(F)cc2c(=O)[nH]1)N1CC=C(c2ccnc(F)c2)CC1` [Example 121, 7-fluoro-3-(3-(2′-fluoro-3,6-dihydro-[4,4′-bipyridine]-1(2H)-yl)-3-oxopropyl)isoquinolin-1(2H)-one]: below 50%; for `Cc1ccc(F)c2c(=O)[nH]c(CCC(=O)N3CCN(c4ccc(C#N)cc4)CC3)cc12` [Example 122, 4-(4-(3-(8-fluoro-5-methyl-1-oxo-1,2-dihydroisoquinolin-3-yl)propanoyl)piperazin-1-yl)benzonitrile]: below 50%; for `Cc1ccc(F)c2c(=O)[nH]c(CCC(=O)N3CCN(c4ccc(C#N)cn4)CC3)cc12` [Example 123, 6-(4-(3-(8-fluoro-5-methyl-1-oxo-1,2-dihydroisoquinolin-3-yl)propanoyl)piperazin-1-yl)nicotinonitrile]: below 50%.

For the compound `Cc1ccc(F)c2c(=O)[nH]c(CCC(=O)N3CCN(c4ccc(C#N)nc4)CC3)cc12` [Example 124, 5-(4-(3-(8-fluoro-5-methyl-1-oxo-1,2-dihydroisoquinolin-3-yl)propanoyl)piperazin-1-yl)picolinonitrile], the inhibition at 0.001 µM is below 50%.

For `Cc1ccc(F)c2c(=O)[nH]c(CCC(=O)N3CC=C(c4ccc(F)cc4)CC3)cc12` [Example 125, 8-fluoro-3-(3-(4-(4-fluorophenyl)-3,6-dihydropyridin-1(2H)-yl)-3-oxopropyl)-5-methylisoquinolin-1(2H)-one], the inhibition at 0.001 µM is below 50%. With `Cc1ccc(F)c2c(=O)[nH]c(CCC(=O)N3CCN(c4ccc(C#N)c(F)c4)CC3)cc12` [Example 126, 2-fluoro-4-(4-(3-(8-fluoro-5-methyl-1-oxo-1,2-dihydroisoquinolin-3-yl)propanoyl)piperazin-1-yl)benzonitrile], the inhibition at 0.001 µM was below 50%. Still for that read-out and setting: the value for `Cc1ccc(F)c2c(=O)[nH]c(CCC(=O)N3CCN(c4ccccc4C#N)CC3)cc12` [Example 127, 2-(4-(3-(8-fluoro-5-methyl-1-oxo-1,2-dihydroisoquinolin-3-yl)propanoyl)piperazin-1-yl)benzonitrile] was below 50%. By IC50 is commonly meant the point on the concentration scale where inhibition reaches its midpoint. As for `Cc1ccc(F)c2c(=O)[nH]c(CCC(=O)N3CCN(c4ccc(C#N)cc4F)CC3)cc12` [Example 128, 3-fluoro-4-(4-(3-(8-fluoro-5-methyl-1-oxo-1,2-dihydroisoquinolin-3-yl)propanoyl)piperazin-1-yl)benzonitrile], the inhibition at 0.001 µM was below 50% and the 50% inhibitory concentration (IC50) came to 1.38 nM.

For the compound `Cc1ccc(F)c2c(=O)[nH]c(CCC(=O)N3CC=C(c4ccc(F)nc4)CC3)cc12` [Example 129], the inhibition at 0.001 µM was below 50%.

Consider `Cc1ccc(F)c2c(=O)[nH]c(CCC(=O)N3CC=C(c4ccc(F)cn4)CC3)cc12` [Example 130, 8-fluoro-3-(3-(5-fluoro-3′,6′-dihydro-[2,4′-bipyridine]-1′(2′H)-yl)-3-oxopropyl)-5-methylisoquinolin-1(2H)-one], for which the inhibition at 0.001 µM is below 50%. Same read-out and setting: the value for `Cc1ccc(F)c2c(=O)[nH]c(CCC(=O)N3CCN(c4ccc(Cl)cc4)CC3)cc12` [Example 131, 3-(3-(4-(4-chlorophenyl)piperazin-1-yl)-3-oxopropyl)-8-fluoro-5-methylisoquinolin-1(2H)-one] was below 50%; that for `Cc1ccc(F)c2c(=O)[nH]c(CCC(=O)N3CCN(c4ccc(F)cc4F)CC3)cc12` [Example 132, 3-(3-(4-(2,4-difluorophenyl)piperazin-1-yl)-3-oxopropyl)-8-fluoro-5-methylisoquinolin-1(2H)-one] was below 50%; that for `Cc1ccc(F)c2c(=O)[nH]c(CCC(=O)N3CCN(c4cc(C#N)ccc4F)CC3)cc12` [Example 133, 4-fluoro-3-(4-(3-(8-fluoro-5-methyl-1-oxo-1,2-dihydroisoquinolin-3-yl)propanoyl)piperazin-1-yl)benzonitrile] was below 50%.

In the case of `Cc1ccc(F)c2c(=O)[nH]c(CCC(=O)N3CCN(c4cc(F)ccc4C#N)CC3)cc12` [Example 134, 4-fluoro-2-(4-(3-(8-fluoro-5-methyl-1-oxo-1,2-dihydroisoquinolin-3-yl)propanoyl)piperazin-1-yl)benzonitrile], the inhibition at 0.001 µM was below 50%. On the same count and under the same terms, the same measure for `Cc1ccc(F)c2c(=O)[nH]c(CCC(=O)N3CCN(c4ccc(F)c(C#N)c4)CC3)cc12` [Example 135, 2-fluoro-5-(4-(3-(8-fluoro-5-methyl-1-oxo-1,2-dihydroisoquinolin-3-yl)propanoyl)piperazin-1-yl)benzonitrile]: below 50%; for `Cc1ccc(F)c2c(=O)[nH]c(CCC(=O)N3CCN(c4ccc(F)cc4C#N)CC3)cc12` [Example 136, 5-fluoro-2-(4-(3-(8-fluoro-5-methyl-1-oxo-1,2-dihydroisoquinolin-3-yl)propanoyl)piperazin-1-yl)benzonitrile]: below 50%. Take `Cc1ccc(F)c2c(=O)[nH]c(CCC(=O)N3CC=C(c4cc(C#N)ccc4F)CC3)cc12` [Example 137, 4-fluoro-3-(1-(3-(8-fluoro-5-methyl-1-oxo-1,2-dihydroisoquinolin-3-yl)propanoyl)-1,2,3,6-tetrahydropyridin-4-yl)benzonitrile]: the inhibition at 0.001 µM is below 50%. Same read-out and setting: the value for `Cc1ccc(F)c2c(=O)[nH]c(CCC(=O)N3CC=C(c4ccccc4F)CC3)cc12` [Example 138, 8-fluoro-3-(3-(4-(2-fluorophenyl)-3,6-dihydropyridin-1(2H)-yl)-3-oxopropyl)-5-methylisoquinolin-1(2H)-one] was below 50%; that for `Cc1ccc(F)c2c(=O)[nH]c(CCC(=O)N3CC=C(c4ccc(F)c(C#N)c4)CC3)cc12` [Example 139, 2-fluoro-5-(1-(3-(8-fluoro-5-methyl-1-oxo-1,2-dihydroisoquinolin-3-yl)propanoyl)-1,2,3,6-tetrahydropyridin-4-yl)benzonitrile] was below 50%; that for `Cc1ccc(F)c2c(=O)[nH]c(CCC(=O)N3CC=C(c4ccc(C#N)cn4)CC3)cc12` [Example 140, 1′-(3-(8-fluoro-5-methyl-1-oxo-1,2-dihydroisoquinolin-3-yl)propanoyl)-1′,2′,3′,6′-tetrahydro-[2,4′-bipyridine]-5-carbonitrile] was below 50%. Take `Cc1ccc(F)c2c(=O)[nH]c(CCC(=O)N3CC=C(c4ccc(C#N)c(F)c4)CC3)cc12` [Example 141, 2-fluoro-4-(1-(3-(8-fluoro-5-methyl-1-oxo-1,2-dihydroisoquinolin-3-yl)propanoyl)-1,2,3,6-tetrahydropyridin-4-yl)benzonitrile]: the inhibition at 0.001 µM was below 50%. The same measure, in the same setting: the value for `Cc1ccc(F)c2c(=O)[nH]c(CCC(=O)N3CCN(c4cccc(F)c4)CC3)cc12` [Example 142, 8-fluoro-3-(3-(4-(3-fluorophenyl)piperazin-1-yl)-3-oxopropyl)-5-methylisoquinolin-1(2H)-one] was below 50%; that for `Cc1ccc(F)c2c(=O)[nH]c(CCC(=O)N3CC=C(c4ccnc(F)c4)CC3)cc12` [Example 144, 8-fluoro-3-(3-(2′-fluoro-3,6-dihydro-[4,4′-bipyridine]-1(2H)-yl)-3-oxopropyl)-5-methylisoquinolin-1(2H)-one] was below 50%. As for `Cc1ccc(F)c2c(=O)[nH]c(CCC(=O)N3CC=C(c4ccc(C#N)nc4)CC3)cc12` [Example 145, 1′-(3-(8-fluoro-5-methyl-1-oxo-1,2-dihydroisoquinolin-3-yl)propanoyl)-1′,2′,3′,6′-tetrahydro-[3,4′-bipyridine]-6-carbonitrile], the inhibition at 0.001 µM was below 50%.

For the compound `COC(=O)c1ccc(N2CCN(C(=O)CCc3cc4c(C)ccc(F)c4c(=O)[nH]3)CC2)cc1` [Example 146, methyl 4-(4-(3-(8-fluoro-5-methyl-1-oxo-1,2-dihydroisoquinolin-3-yl)propanoyl)piperazin-1-yl)benzoate], the inhibition at 0.001 µM was below 50%. The same measure, in the same setting: the same measure for `Cc1ccc(F)c2c(=O)[nH]c(CCC(=O)N3CCN(c4ccc(C(=O)O)cc4)CC3)cc12` [Example 147, 4-(4-(3-(8-fluoro-5-methyl-1-oxo-1,2-dihydroisoquinolin-3-yl)propanoyl)piperazin-1-yl)benzoic acid]: below 50%; for `Cc1ccc(F)c2c(=O)[nH]c(CCC(=O)N3C4CCC3CN(c3ccc(C#N)cc3)C4)cc12` [Example 148, 4-(8-(3-(8-fluoro-5-methyl-1-oxo-1,2-dihydroisoquinolin-3-yl)propanoyl)-3,8-diazabicyclo[3.2.1]octan-3-yl)benzonitrile]: below 50%; for `Cc1cc(F)cc2c(=O)[nH]c(CCC(=O)N3CCN(c4ccc(C#N)cc4)CC3)cc12` [Example 149, 4-(4-(3-(7-fluoro-5-methyl-1-oxo-1,2-dihydroisoquinolin-3-yl)propanoyl)piperazin-1-yl)benzonitrile]: below 50%. On the same count and under the same terms, the value for `Cc1cc(F)cc2c(=O)[nH]c(CCC(=O)N3CC=C(c4ccc(F)cc4)CC3)cc12` [Example 150, 7-fluoro-3-(3-(4-(4-fluorophenyl)-3,6-dihydropyridin-1(2H)-yl)-3-oxopropyl)-5-methylisoquinolin-1(2H)-one] was below 50%.

For `Cc1cc(F)cc2c(=O)[nH]c(CCC(=O)N3CCN(c4ccc(C#N)nc4)CC3)cc12` [Example 151, 5-(4-(3-(7-fluoro-5-methyl-1-oxo-1,2-dihydroisoquinolin-3-yl)propanoyl)piperazin-1-yl)picolinonitrile], the inhibition at 0.001 µM was below 50% and the IC50 is 4.05 nM.
